# US8389573B2, “Glycyrrhetinic acid derivatives” (Wellington Laboratories Inc., priority 2006, dated 2013)
# What was measured:
# PPARγ = test: PPARγ-GAL4/GAL4-Luc or PPRE3-Luc transactivation in LNCaP cells; type: cell-based
# Excerpt: Transfections: The Gal4 reporter construct containing 5× Gal4 response elements (pGal4) was kindly provided by Dr. Marty Mayo (University of North Carolina, Chapel Hill, N.C.). The Gal4 DBD-PPARγ construct was a gift of Dr. Jennifer L. Oberfield (Glaxo Wellcome Research and Development, Research Triangle Park, N.C.). The PPRE-luc construct contains three tandem PPREs with a minimal TATA sequence linked to the luciferase gene in pGL2. The AR-luc construct containing the −5400 to +580 region of the androgen receptor promoter was provided by Dr. Donald J. Tindall (Mayo Clinic, Rochester, Minn.), and the PSA-luc construct containing the 5.8-kilobase region of the PSA promoter was provided by Dr. Hong-Wu Cheng (University of California, Davis, Calif.). LNCaP cells (1×10^5) were seeded in 12-well plates in DMEM/Ham's F-12 media supplemented with 2.5% charcoal-stripped FBS and grown overnight. Transient transfections were performed using Lipofectamine reagent (Invitrogen) according to the protocol provided by the manufacturer. Transfection studies were performed using 0.4 μg of Gal4Luc, 0.04 μg of β-galactosidase, 0.04 μg of Gal4 DBD-PPARγ, 0.4 μg of AR-luc, and 0.3 μg of PSA-luc. Six hr after transfection, the transfection mix was replaced with complete media containing either vehicle (DMSO) or the indicated ligand for 20 to 22 hr. Cells were then lysed with 100 μl of 1× reporter lysis buffer, and 30 μl of cell extract was used for luciferase and β-galactosidase assays. A Lumicount luminometer (PerkinElmer Life and Analytical Sciences) was used to quantify luciferase and β-galactosidase activities, and the luciferase activities were normalized to β-galactosidase activity.
# PSA mRNA = test: Real-time PCR of PSA mRNA in LNCaP cells; type: cell-based, human; conditions: 12 or 18 hr
# Description: Real-Time PCR: Total RNA was isolated using the RNeasy Protect Mini kit (QIAGEN, Valencia, Calif.) according to the manufacturer's protocol. RNA was eluted with 30 μl of RNasefree water and stored at −80° C. RNA was reverse transcribed using Superscript II reverse transcriptase (Invitrogen) according to the manufacturer's protocol. cDNA was prepared from the LNCaP cell line using a combination of oligodeoxythymidylic acid and dNTP mix (Applied Biosystems, Foster City, Calif.) and Superscript II (Invitrogen). Each PCR was carried out in triplicate in a 25-μl volume using SYBR Green Master mix (Applied Biosystems) for 15 min at 95° C. for initial denaturing, followed by 40 cycles of 95° C. for 30 s and 60° C. for 1 min in the ABI Prism 7700 sequence detection system (Applied Biosystems). The ABI Dissociation Curves software was used after a brief thermal protocol (95° C. 15 s and 60° C. 20 s, followed by a slow ramp to 95° C.) to control for multiple species in each PCR amplification. The comparative CT method was used for relative quantitation of samples. Values for each gene were normalized to expression levels of TATA-binding protein. Primers were purchased from Integrated DNA Technologies (Coralville, Iowa). The sequences of the primers used for reverse transcription-PCR were as follows: AR forward, 5′-GTA CCC TGG CGG CAT GGT-3′ [SEQ ID NO: 1] and AR reverse, 5′-CCCATTTCGCTTTTGACACA-3′ [SEQ ID NO: 2]; PSA forward, 5′-GCATTGAACCAGAGGAGTTCTTG-3′ [SEQ ID NO: 3] and PSA reverse, 5′-TTG CGC ACA CAC GTC ATT G-3′ [SEQ ID NO: 4]; and TATA-binding protein forward, 5′-TGCACAGGAGCCAAGAGTGAA-3′ [SEQ ID NO: 5] and reverse, 5′-CACATCACAGCTCCCCACCA-3′ [SEQ ID NO: 6].
# [1] = test system: LNCaP human prostate carcinoma cells; test: Cell proliferation assay in LNCaP cells; type: cell-based; conditions: 96 hr, read-out: IC50, inhibition of LNCaP cell growth
# Description: Cell lines: LNCaP human prostate carcinoma cells were obtained from American Type Culture Collection (Manassas, Va.). Fetal bovine serum was obtained from JRH Biosciences, Lenexa, Kans. LNCaP cells were maintained in RPMI 1640 (Sigma Chemical, St. Louis, Mo.) supplemented with 0.22% sodium bicarbonate, 0.011% sodium pyruvate, 0.45% glucose, 0.24% HEPES, 10% FBS, and 10 mL/L of 100× antibiotic/antimycotic solution (Sigma). Cells were maintained at 37° C. in the presence of 5% CO2.
# Cell Proliferation and DNA Fragmentation Assays: LNCaP prostate cancer cells (2×10^4 per well) were added to 12-well plates and allowed to attach for 24 hr. The medium was then changed to DMEM/Ham's F-12 media containing 2.5% charcoal-stripped FBS, and either vehicle (DMSO) or the indicated C-DIMs were added. Fresh medium and indicated compounds were added every 48 hr, and cells were then trypsinized and counted after 2, 4, and 6 days using a Coulter Z1 cell counter (Beckman Coulter, Fullerton, Calif.). Each experiment was done in triplicate, and results are expressed as means±S.E. for each set of three experiments. The DNA fragmentation assay was performed using a BioVision Apoptotic DNA ladder extraction kit (BioVision, Mountain View, Calif.) according to the manufacturer's protocol.
smiles,measurement,setting,value
"COC(=O)[C@@]1(C)CC[C@]2(C)CC[C@]3(C)C(=CC(=O)[C@@H]4[C@@]5(C)C=C(C#N)C(=O)C(C)(C)[C@@H]5CC[C@]43C)[C@@H]2C1 [β-CDODA-Me, Methyl 2-cyano-3,11-dioxo-18β-oleana-1,12-dien-30-oate]",induced transactivation after cotreatment with 10 μM T007,PPARγ,significant inhibition of induced transactivation
same,PPARγ-dependent transactivation (luciferase activity),PPARγ; 1-5 μM,significantly induced luciferase activity
same,melting point,,243 to 245 °C
same,PSA mRNA levels,PSA mRNA,downregulation of PSA mRNA levels
same,PSA mRNA response after cotreatment with T007,PSA mRNA,not inhibited
same,downregulation of PSA mRNA levels after cotreatment with cycloheximide,PSA mRNA,significantly inhibited
same,IC50,[1],~1000 nM
